Test results taken from ChEMBL document CHEMBL1201862, “PubChem BioAssay data set” (2004).
Calls of active or inactive are those of the source.

Columns and labels:
[1] = biological target: SWI/SNF-related matrix-associated actin-dependent regulator of chromatin subfamily A member 2 (Homo sapiens, UniProt P51531); assay: Luminescence-based cell-based high throughput dose response assay to identify activators of the function of SWI/SNF related, matrix associated, actin dependent regulator of chromatin, subfamily a, member 2 (SMARCA2, BRM).; format: functional
SWI/SNF-related matrix-associated actin-dependent regulator of chromatin subfamily A member 2, sequence (P51531 whole entry): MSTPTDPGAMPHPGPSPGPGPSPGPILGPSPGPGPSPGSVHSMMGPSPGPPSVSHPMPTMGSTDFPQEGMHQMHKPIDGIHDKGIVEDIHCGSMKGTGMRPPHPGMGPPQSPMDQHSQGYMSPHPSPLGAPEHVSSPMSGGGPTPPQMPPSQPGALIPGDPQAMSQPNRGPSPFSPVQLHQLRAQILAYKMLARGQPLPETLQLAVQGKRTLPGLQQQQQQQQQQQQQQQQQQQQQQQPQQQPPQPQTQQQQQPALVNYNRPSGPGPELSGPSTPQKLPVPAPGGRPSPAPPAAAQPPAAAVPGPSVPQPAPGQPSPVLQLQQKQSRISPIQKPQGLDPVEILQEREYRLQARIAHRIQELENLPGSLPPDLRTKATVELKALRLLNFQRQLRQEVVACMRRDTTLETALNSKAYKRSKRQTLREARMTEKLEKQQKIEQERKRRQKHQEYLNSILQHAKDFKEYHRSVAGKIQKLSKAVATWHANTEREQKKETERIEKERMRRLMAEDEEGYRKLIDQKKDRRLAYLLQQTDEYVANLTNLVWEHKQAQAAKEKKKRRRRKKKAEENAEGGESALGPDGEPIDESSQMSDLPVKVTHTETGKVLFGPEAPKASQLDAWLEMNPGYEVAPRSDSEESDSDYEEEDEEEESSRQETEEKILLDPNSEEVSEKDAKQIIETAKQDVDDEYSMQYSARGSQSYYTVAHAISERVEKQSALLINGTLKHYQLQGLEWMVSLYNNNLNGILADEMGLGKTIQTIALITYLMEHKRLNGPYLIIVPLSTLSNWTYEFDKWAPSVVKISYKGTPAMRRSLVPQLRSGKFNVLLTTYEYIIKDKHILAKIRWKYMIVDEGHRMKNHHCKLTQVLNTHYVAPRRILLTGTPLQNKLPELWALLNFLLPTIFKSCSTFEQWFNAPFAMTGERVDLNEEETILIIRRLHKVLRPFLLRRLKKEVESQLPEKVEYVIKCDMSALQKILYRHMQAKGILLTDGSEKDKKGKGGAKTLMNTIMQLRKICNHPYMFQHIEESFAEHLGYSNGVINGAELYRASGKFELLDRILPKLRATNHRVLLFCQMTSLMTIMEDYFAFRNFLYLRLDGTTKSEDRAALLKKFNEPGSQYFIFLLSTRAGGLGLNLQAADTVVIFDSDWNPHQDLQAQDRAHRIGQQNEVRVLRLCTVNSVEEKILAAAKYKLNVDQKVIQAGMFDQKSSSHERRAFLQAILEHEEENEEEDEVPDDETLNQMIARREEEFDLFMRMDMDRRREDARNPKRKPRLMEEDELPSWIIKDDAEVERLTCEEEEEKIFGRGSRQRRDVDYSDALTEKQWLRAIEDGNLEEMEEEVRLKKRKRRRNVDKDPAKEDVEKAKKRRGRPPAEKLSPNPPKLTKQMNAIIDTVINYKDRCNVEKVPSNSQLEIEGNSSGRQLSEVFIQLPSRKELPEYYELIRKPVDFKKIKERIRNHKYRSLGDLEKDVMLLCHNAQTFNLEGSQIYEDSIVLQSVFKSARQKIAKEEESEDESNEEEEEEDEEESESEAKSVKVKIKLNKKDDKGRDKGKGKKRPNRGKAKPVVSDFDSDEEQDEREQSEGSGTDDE

[2] = Counterscreen for activators of the function of SWI/SNF related, matrix associated, actin dependent regulator of chromatin, subfamily a, member 2 (SMARCA2, BRM): Luminescence-based cell-based high throughput dose response assay to identify non-selective compounds using the VP16 reporter assay.; format: functional
cells [3] = format: functional, cell-based
cells [4] = format: functional, cell-based; remark: listed apart in the source
[5] = biological target: Mitogen-activated protein kinase 10 (Homo sapiens, UniProt P53779); assay: Dose response biochemical screening assay for inhibitors of c-Jun N-Terminal Kinase 3 (JNK3). [Related pubchem assays: 746 ]
Mitogen-activated protein kinase 10, sequence (P53779 whole entry): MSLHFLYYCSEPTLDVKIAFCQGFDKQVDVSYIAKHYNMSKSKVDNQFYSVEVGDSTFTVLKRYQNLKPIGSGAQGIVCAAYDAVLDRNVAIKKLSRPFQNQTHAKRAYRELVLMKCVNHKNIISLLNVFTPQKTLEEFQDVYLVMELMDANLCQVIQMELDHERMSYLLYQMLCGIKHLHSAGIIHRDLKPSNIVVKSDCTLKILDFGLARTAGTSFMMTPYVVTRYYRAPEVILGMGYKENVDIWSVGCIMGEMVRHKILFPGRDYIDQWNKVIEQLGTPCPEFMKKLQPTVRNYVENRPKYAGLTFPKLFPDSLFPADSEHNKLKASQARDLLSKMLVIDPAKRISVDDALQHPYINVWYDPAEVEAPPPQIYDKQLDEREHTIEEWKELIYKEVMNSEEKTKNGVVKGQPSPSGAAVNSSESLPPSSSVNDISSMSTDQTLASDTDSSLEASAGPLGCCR

Estrogen receptor = biological target: T1, Estrogen receptor (Homo sapiens, UniProt P03372);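 further: potency for inhibiting coactivator peptide recruitment to the receptor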
T1 sequence (P03372 whole entry): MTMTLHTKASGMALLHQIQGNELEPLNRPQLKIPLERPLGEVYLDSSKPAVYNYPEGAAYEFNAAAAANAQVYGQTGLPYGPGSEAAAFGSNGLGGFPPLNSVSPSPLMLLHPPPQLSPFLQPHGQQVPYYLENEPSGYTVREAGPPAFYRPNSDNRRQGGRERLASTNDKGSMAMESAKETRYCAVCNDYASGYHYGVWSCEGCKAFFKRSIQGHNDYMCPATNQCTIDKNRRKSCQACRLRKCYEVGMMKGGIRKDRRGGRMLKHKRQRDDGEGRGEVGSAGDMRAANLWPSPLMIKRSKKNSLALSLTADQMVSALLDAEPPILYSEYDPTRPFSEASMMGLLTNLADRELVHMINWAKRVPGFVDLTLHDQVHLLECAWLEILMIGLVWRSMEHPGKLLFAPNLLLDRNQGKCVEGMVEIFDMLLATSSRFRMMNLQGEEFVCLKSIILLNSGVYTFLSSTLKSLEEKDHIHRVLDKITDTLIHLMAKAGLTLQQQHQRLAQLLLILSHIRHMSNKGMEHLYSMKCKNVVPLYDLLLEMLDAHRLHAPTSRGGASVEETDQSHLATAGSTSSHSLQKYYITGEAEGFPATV

Estrogen receptor beta [6] = biological target: T2, Estrogen receptor beta (Homo sapiens, UniProt Q92731);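 further: recombinant ER-beta bound to coactivator SRC1 peptide in presence of estradiol agonist; inhibitors block coactivator peptide binding and lower the FRET signal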
T2 sequence (Q92731 whole entry): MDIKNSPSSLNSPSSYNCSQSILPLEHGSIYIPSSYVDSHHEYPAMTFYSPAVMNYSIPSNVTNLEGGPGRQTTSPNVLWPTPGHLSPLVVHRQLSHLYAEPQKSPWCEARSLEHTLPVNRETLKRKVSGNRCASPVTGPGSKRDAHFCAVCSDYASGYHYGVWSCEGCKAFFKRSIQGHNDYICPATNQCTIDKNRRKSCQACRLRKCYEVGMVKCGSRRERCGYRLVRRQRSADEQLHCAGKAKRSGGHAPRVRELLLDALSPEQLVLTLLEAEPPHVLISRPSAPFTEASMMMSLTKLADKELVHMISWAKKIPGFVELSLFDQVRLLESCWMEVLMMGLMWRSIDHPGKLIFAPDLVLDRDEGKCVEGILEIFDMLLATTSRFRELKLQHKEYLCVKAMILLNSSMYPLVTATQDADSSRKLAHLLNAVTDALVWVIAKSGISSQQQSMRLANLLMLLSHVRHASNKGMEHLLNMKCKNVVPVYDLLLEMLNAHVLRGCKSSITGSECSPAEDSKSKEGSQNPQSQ

Estrogen receptor beta [7] = biological target: T2, Estrogen receptor beta; assay: ERβ–SRC-3 coactivator interaction inhibitors, confirmation, orthogonal assay, biochemical, ELISA, streptavidin-HRP readout (AID 1060)
[8] = inhibitors of firefly luciferase expression or activity, dose response, H4 neuroglioma cells, luminescence (AID 1990); format: functional, cell-based
[9] = inhibitors of SNCA 5'UTR-driven reporter translation, confirmation, H4 neuroglioma cells, luminescence (AID 1988); format: functional, cell-based
[10] = Luminescence Cell-Based Dose Response HTS to Identify Inhibitors of 5'UTR Stem-Loop Driven Prion Protein mRNA Translation in H4 Neuroglioblastoma Cells. [Related pubchem assays: 1827 (Project Summary), 1813 (Primary HTS)]; format: functional
[11] = cytotoxicity in HEK-293T cells, dose response, cytotoxicity control for BCR NF-kB inhibitor project, luminescence, B-cell screen hits (AID 489021); format: functional, cell-based;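 further: HEK-293T cells carrying an NF-kB luciferase reporter; cells exposed to compound for about 14 hours before viability readout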
[12] = biological target: Voltage-dependent T-type calcium channel subunit alpha-1H (Homo sapiens, UniProt O95180); format: functional;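 further: channel activity triggered by adding a high calcium stimulation buffer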
Voltage-dependent T-type calcium channel subunit alpha-1H, sequence (O95180 whole entry): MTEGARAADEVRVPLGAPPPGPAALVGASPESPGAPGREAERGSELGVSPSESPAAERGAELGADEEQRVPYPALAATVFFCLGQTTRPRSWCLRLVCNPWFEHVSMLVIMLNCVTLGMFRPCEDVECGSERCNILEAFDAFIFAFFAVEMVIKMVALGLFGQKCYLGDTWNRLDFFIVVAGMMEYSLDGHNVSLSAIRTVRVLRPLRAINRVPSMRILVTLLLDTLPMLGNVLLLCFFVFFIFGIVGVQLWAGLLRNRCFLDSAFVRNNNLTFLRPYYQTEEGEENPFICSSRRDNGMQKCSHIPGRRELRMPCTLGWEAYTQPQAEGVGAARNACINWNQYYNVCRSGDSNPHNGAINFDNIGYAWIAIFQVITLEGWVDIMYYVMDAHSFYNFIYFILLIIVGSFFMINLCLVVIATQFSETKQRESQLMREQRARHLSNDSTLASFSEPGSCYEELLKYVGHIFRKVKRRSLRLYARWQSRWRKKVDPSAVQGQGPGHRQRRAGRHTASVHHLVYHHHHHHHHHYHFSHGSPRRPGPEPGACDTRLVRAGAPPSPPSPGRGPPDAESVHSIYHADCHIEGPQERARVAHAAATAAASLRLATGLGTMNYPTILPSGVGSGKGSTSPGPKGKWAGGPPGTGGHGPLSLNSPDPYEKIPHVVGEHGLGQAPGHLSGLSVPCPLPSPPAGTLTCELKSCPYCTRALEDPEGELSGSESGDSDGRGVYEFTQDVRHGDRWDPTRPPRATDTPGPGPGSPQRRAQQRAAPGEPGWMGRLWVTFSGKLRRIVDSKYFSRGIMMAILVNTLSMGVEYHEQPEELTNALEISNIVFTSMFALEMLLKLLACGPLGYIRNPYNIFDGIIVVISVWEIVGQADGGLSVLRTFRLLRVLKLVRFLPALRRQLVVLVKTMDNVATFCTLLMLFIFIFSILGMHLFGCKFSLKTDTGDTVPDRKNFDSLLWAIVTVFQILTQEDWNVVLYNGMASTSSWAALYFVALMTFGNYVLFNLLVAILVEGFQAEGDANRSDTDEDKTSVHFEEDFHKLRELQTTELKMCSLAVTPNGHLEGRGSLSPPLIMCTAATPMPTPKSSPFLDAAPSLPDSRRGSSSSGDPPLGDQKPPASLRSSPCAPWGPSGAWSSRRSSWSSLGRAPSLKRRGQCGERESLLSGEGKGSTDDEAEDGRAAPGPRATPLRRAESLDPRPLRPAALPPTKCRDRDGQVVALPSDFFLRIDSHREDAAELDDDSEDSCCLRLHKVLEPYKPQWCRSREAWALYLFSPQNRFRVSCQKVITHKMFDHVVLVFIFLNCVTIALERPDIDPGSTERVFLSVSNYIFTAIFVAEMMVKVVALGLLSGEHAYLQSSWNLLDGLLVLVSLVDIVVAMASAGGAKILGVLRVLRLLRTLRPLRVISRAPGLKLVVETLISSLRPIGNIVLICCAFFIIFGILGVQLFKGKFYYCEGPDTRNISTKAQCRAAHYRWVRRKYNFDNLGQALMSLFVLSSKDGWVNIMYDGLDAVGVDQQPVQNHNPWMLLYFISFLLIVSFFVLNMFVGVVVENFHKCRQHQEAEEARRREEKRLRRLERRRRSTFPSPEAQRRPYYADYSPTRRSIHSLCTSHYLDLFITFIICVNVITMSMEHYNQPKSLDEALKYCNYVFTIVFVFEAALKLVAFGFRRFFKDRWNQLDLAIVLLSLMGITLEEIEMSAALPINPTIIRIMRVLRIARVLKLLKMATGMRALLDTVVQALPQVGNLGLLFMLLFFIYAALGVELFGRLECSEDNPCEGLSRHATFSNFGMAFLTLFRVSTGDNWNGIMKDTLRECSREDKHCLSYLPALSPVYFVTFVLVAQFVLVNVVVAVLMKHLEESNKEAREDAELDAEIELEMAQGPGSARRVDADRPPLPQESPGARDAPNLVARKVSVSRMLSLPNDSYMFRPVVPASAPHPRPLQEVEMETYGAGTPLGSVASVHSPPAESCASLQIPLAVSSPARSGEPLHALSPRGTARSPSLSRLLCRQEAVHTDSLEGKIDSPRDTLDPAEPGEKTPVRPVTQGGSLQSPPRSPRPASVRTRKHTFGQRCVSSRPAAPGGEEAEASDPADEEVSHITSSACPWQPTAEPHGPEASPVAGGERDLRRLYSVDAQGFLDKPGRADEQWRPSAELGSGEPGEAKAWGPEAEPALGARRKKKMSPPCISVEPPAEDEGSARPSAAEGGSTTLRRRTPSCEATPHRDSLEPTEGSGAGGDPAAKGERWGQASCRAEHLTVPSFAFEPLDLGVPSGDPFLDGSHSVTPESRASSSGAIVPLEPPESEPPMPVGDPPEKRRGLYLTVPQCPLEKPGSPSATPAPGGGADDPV

Paired box protein Pax-8 = Paired box protein Pax-8 (Homo sapiens, UniProt Q06710); assay: inhibitors of PAX8-driven TPO luciferase reporter, dose response, RMG-I cells, cherry-pick (AID 687027); format: functional, cell-based;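 further: luciferase reporter driven by Pax8 target thyroperoxidase promoter measured by SteadyGlo luminescence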
[13] = non-specific cell cytotoxicity, dose response, cytotoxicity control for PAX8 inhibitor project, plate reader, dry powder samples (AID 743021); format: functional, cell-based
[14] = biological target: Eukaryotic translation initiation factor 4E (Mus musculus, UniProt P63073); assay: eIF4E–eIF4G protein interaction inhibitors, dose response, biochemical, TR-FRET (AID 855); format: functional;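 further: potency for disrupting eIF4E binding to eIF4GI seen as loss of FRET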
[15] = miR-122 activators in hepatoma reporter cells, dose response, cell-based, Huh7 psiCHECK-miR122, Renilla luciferase, cherry-picked (AID 651956); format: functional;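 further: huh7 hepatoma cells stably carrying a psiCHECK-2 miR-122 sensor plasmid; renilla luciferase signal reporting endogenous miR-122 activity after 48 h compound exposure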
Vero [16] = assay: cells; format: functional; details: Chlorocebus sabaeus
Protein RecA = biological target: T3, Protein RecA (Mycobacterium tuberculosis, UniProt P9WHJ3); assay: Fluorescence Cell-Free Homogeneous Dose Retest to Identify Inhibitors of RecA-Intein Splicing Activity. [Related pubchem assays (depositor defined):AID2097, AID2223, AID489010, AID492950]; format: functional
T3 sequence (P9WHJ3 whole entry): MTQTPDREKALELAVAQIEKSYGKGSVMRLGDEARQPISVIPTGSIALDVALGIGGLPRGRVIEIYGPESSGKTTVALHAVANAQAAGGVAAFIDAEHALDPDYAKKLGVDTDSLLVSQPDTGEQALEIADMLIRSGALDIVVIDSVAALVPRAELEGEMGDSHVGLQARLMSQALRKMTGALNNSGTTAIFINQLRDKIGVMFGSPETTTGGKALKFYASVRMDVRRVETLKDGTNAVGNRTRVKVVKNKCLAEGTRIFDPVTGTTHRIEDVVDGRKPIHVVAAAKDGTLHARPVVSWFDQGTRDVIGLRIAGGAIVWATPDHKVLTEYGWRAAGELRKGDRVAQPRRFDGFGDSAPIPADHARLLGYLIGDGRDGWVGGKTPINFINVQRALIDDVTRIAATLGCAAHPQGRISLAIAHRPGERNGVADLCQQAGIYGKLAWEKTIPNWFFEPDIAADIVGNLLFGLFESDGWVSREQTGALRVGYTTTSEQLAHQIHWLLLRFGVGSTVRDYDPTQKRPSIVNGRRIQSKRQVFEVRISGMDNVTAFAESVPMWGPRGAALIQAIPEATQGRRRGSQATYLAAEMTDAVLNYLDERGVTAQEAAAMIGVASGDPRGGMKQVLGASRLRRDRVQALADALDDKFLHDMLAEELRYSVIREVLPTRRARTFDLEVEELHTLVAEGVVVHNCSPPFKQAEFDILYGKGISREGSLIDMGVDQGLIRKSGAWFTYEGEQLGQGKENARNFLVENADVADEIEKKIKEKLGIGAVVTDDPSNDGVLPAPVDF

Vero [17] = assay: cells; format: functional, cell-based; details: Chlorocebus sabaeus
[18] = Fluorescence-based cell-based high throughput dose response assay for inhibitors of the interaction of nucleotide-binding oligomerization domain containing 2 (NOD2) and the receptor-interacting serine-threonine kinase 2 (RIPK2).; format: functional, Homo sapiens; details: Homo sapiens
[19] = growth suppression of PTEN-null colon cells, dose response, cell-based, HCT116 PTEN knockout (AID 1047); format: functional;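 further: HCT116 colon tumor cells with PTEN knocked out; cells exposed to compound for 60 hours before readout; potency for loss of cell viability measured by luminescence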
[20] = Luminescence Cell-Based Dose Retest to Confirm Inhibitors of Cancer Stem Cells. [Related pubchem assays (depositor defined):AID2717, AID2721]; format: functional; details: Homo sapiens
[21] = inhibitors of PGC1a acetylation in cells, dose response, cell-based, cherry-picked samples (AID 720514); format: functional;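 further: potency may reflect raised or lowered acetylation signal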
[22] = biological target: T4, Replicative DNA helicase DnaB (Mycobacterium tuberculosis, UniProt P9WMR3); assay: DnaB intein splicing inhibitors, dose response, biochemical, cell-free fluorescence (AID 449749); format: functional
T4 sequence (P9WMR3 whole entry): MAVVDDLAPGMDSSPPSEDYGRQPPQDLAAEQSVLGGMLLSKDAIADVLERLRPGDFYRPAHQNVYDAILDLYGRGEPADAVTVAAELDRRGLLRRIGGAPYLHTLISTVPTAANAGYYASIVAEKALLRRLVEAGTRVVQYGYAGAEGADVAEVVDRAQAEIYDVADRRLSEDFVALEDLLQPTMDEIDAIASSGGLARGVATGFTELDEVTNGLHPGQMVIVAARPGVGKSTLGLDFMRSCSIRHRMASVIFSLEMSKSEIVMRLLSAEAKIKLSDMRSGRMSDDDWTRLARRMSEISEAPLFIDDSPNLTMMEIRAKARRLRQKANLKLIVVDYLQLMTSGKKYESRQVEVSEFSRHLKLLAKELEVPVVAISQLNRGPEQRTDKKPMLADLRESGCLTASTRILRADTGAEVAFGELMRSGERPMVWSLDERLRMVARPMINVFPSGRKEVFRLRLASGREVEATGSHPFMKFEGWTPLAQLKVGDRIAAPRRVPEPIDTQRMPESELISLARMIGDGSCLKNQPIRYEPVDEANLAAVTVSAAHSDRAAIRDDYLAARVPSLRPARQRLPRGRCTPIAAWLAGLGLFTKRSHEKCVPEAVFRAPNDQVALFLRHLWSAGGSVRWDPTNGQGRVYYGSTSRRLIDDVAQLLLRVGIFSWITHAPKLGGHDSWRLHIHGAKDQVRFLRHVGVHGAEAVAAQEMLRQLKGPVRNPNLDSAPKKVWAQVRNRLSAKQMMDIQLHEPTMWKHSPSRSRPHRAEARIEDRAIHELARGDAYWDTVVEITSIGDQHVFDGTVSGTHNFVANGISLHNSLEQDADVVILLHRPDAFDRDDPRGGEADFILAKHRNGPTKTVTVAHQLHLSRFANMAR

[23] = growth suppression of beta-catenin-knockout colon cells, dose response, cell-based, HCT116, human colon tumor (AID 1045); format: functional;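 further: HCT116 colon tumor cells with beta catenin knocked out; cells exposed to compound for 60 hours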
INS1 = assay: beta cell apoptosis inhibitors, cytokine rescue, dose response, luminescence, retest (AID 449756); format: functional, cell-based; details: Rattus norvegicus;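 further: cell death triggered by IL-1 beta plus TNF-alpha plus IFN-gamma mixture; protective hits raise ATP signal compared with cytokine alone wells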
[24] = HEK293T cytotoxicity, dose response, cytotoxicity control for miR-122 modulator project, cell-based, activator set, cherry-pick (AID 720690); format: functional;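 further: HEK293T human cells scored for general mammalian cytotoxicity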
[25] = HepG2 cell cytotoxicity, dose response, cytotoxicity control, plate reader, cherry-pick, antagonist series (AID 743416); format: functional, cell-based
[26] = A549 cell cytotoxicity, dose response, cytotoxicity control, plate reader, cherry-pick, antagonist series (AID 743412); format: functional, cell-based

For `Cc1nccc(-c2cc(-c3ccc(Cl)cc3Cl)no2)n1`, the EC50 [1] was > 91.2 µM (inactive) and the EC50 [2] was > 91.2 µM (inactive).

For `Cc1c(C#N)c(O)n(CCO)c(=O)c1CN1CCCC(C)C1` (configuration not stated), the EC50 (cells [3]) was > 29.9 µM (inactive) and the IC50 (cells [4]) was > 29.9 µM (inactive).

With `CN(c1ccc(C(=O)Nc2nccs2)cc1)S(=O)(=O)c1ccccc1` the IC50 [5] was 46.9 µM (not active).

In the case of `c1ccc2[nH]c3c4ccccc4nc-3nc2c1`, the IC50 [5] is reported as 13.9 µM (not active).

In the case of `CCn1nnc(NC(=O)CSc2ccc(Cl)cc2)n1`, the IC50 (Estrogen receptor) is reported as 9.27 µM (active), the IC50 (Estrogen receptor beta [6]) is reported as 4.65 µM (active) and the IC50 (Estrogen receptor beta [7]) is reported as > 109 µM (not active).

With `CC(=O)c1c(COC(=O)c2ccco2)nc2ccccc2[n+]1[O-]` the EC50 [8] was > 120 µM (not active), the EC50 [9] was > 120 µM (not active) and the IC50 (Estrogen receptor) was 29.2 µM (active). For the same compound, the IC50 (Estrogen receptor beta [6]) was 10.8 µM (active), the EC50 [10] was > 120 µM (not active) and the IC50 (Estrogen receptor beta [7]) was < 77 µM (not active).

In the case of `COC(=O)c1[nH]c2ccc(C)cc2c1NC(=O)Nc1ccccc1OC`, the IC50 [11] is reported as > 80 µM (inactive).

In the case of `Cc1nnc(SCc2nc3ccccc3s2)n1N`, the EC50 [1] is reported as > 91.1 µM (inactive) and the EC50 [2] is reported as > 91.1 µM (inactive).

For `CS(=O)(=O)N1CCN(c2ccccc2NC(=O)CSc2ccc(Cl)cc2)CC1`, the EC50 [12] was 7.39 µM (active) and the IC50 [5] was 90.5 µM (not active).

For `Cc1ccc(Cl)cc1N1CCN(C(=O)c2noc(C)c2[N+](=O)[O-])CC1`, the AC50 (Paired box protein Pax-8) was 6.41 µM (active) and the AC50 [13] was 43.2 µM (active).

In the case of `Cn1c(C(C)(O)C(O)c2ccccc2)nc2ccccc21` (configuration not stated), the IC50 [14] is reported as > 64 µM (inactive).

With `COc1cccc(CNC(=O)COC(=O)c2nc(Cl)c(Cl)c(Cl)c2Cl)c1` the EC50 [1] was > 91.2 µM (inactive) and the EC50 [2] was > 91.2 µM (inactive).

With `CC(=O)c1cccc(S(=O)(=O)NCC2CCCCC2)c1` the AC50 [15] was 5.36 µM (active).

For `O=C1NC2=C(C(=O)c3ccccc32)C(c2ccccc2)N1` (configuration not stated), the IC50 [5] was 38.3 µM (not active).

For `O=C(NCc1cccnc1)/C(=C\c1ccc(-c2cccc(Cl)c2)o1)S(=O)(=O)c1ccccc1`, the CC50 (Vero [16]) was 9.17 µM (active), the EC50 (Protein RecA) was 17.8 µM (active) and the IC50 (Vero [17]) was 22.8 µM (active). The IC50 [18] was 10.8 µM (inactive), the EC50 [19] was 3.2 µM (active) and the AC50 [20] was 2.35 µM (active). The AC50 [21] was 15 µM (active), the AC50 [22] was 13.7 µM (active) and the EC50 [23] was 2.86 µM (active). For the same compound, the AC50 (INS1) was 7.76 µM (active).

With `CC(C)(C)OC(=O)N1CCN(c2ccc(NC(=O)Cn3nnc(-c4ccccc4)n3)cc2)CC1` the IC50 (Estrogen receptor beta [6]) was 6.06 µM (active) and the IC50 (Estrogen receptor beta [7]) was 2.7 µM (not active).

With `CCOc1ccc(NC(=O)CCCc2cc(-c3ccc(OCC)cc3)on2)cc1` the IC50 [11] was > 80 µM (inactive).

With `CCC(=O)N(C)C[C@H]1Oc2cc(C#CC3CCCCC3)ccc2S(=O)(=O)N([C@@H](C)CO)C[C@H]1C` the AC50 [24] was 27.7 µM (active) and the AC50 [15] was 7.88 µM (active).

In the case of `CCN(C[C@@H]1N[C@@H](CO)[C@H]1c1ccc(-c2cccc(F)c2)cc1)C(=O)CN(C)C`, the AC50 [24] is reported as 25.7 µM (active) and the AC50 [15] is reported as 13 µM (active).

In the case of `N#C[C@H]1[C@@H](c2ccc(C3=CCCCC3)cc2)[C@H](CO)N1C(=O)c1ccccn1`, the AC50 [25] is reported as 34.2 µM (active).

For `Cc1ccc(S(=O)(=O)Nc2ccc3c(c2)C(=O)N([C@H](C)CO)C[C@@H](C)[C@H](CN(C)S(=O)(=O)c2cccs2)OCCCC[C@@H](C)O3)cc1`, the AC50 [25] was > 52 µM (inactive) and the AC50 [26] was 32.1 µM (active).
